Reference: patent publication US11708344B2, “Flavone derivatives for the treatment and prophylaxis of hepatitis B virus disease” (Hoffmann-La Roche Inc., priority 2018, dated 2023)
Like-named read-outs stand apart in the source and are kept apart here.

Test system: HBeAg (surrogate marker for cccDNA) in HepDES19 cells
Assay: Engineered HepDES19 primary screen assay (HBeAg ELISA)
Format: cell-based, HBV
Source text: The assay was employed to screen for novel cccDNA inhibitors. HepDES19 is a cccDNA-producing cell line. In this cell line, HBeAg in the cell culture supernatant as surrogate marker, as HBeAg production depends on cccDNA level and activity. HepDES19 is an engineered cell line which contains a 1.1 unit length HBV genome, and pgRNA transcription from the transgene is controlled by Tetracycline (Tet). In the absence of Tet, pgRNA transcription will be induced, but HBV e antigen (HBeAg) could not be produced from this pgRNA due to very short leader sequence before the HBeAg start codon and the start codon is disrupted. Only after cccDNA is formed, the missing leader sequence and start codon mutation would be restored from the 3′-terminal redundancy of pgRNA, and then HBeAg could be synthesized. Therefore, HBeAg could be used as a surrogate marker for cccDNA (Zhou, T. et al., Antiviral Res. (2006), 72(2), 116-124; Guo, H. et al., J. Virol. (2007), 81(22), 12472-12484).
HepDES19 cells were seeded at 2×10^6 cells per T150 flask and cultured with the culture medium (Dulbecco's Modified Eagle Medium: Nutrient Mixture F-12 [DMEM-F12, Gibco Cat. 11320-82], 10% Fetal Bovine Serum [FBS, Clontech Cat. 631101], 0.1 mM Non-Essential Amino Acids Solution [NEAA, Gibco Cat. 11140-050], 50 μg/mL Penicillin-Streptomycin [PS, Invitrogen Cat. 15140-163], 500 μg/mL Geneticin [G418, Invitrogen Cat. 10131-027]) containing 3 μg/mL Tet (Sigma, Cat. 87128) for 5 days. Cells were then seeded at 4×10^6 cells per T150 in the same culture medium as described above in the absence of Tet for 8 days. Cells were then harvested and frozen at density of 2×10^6 cells per mL. For compound testing, the frozen cells were thawed and seeded into 96-well plates at a density of 6×10^4 cells per well. At 24 hours after seeding, half log serial dilutions of compounds made with Dimethyl sulfoxide (DMSO, Sigma, Cat. D2650) were further diluted with the same culture medium as described above before they were added to the cells to reach desired final compound concentrations and 1% DMSO concentration. Plates were then incubated at 37° C. for another 5 days before measurement of HBeAg level and cell viability. […] HBeAg level were measured with enzyme-linked immunosorbent assay (ELISA) kit (Shanghai Kehua Diagnostic Medical Products Co., Ltd). Cell viability was assessed using Cell Counting Kit-8 (DonJindo, Cat. CK04-20). IC50 values were derived from the dose-response curve using 4 parameter logistic curve fit method.
The compounds of the present invention were tested for their capacity to inhibit extracellular HBeAg level as described herein.

[1] = Hepatitis B virus, HepDES19, 120 h, read-out: IC50 (HBeAg level, HepDES19 primary screen assay), HepDES19 cells, 5 days compound incubation, HBeAg ELISA

O=c1cc(-c2ccc(Br)cc2OCCO[C@H]2C[C@H](C(=O)O)C2)oc2c(Cl)c(F)ccc12 [Example C030-B, Trans-3-[2-[5-bromo-2-(8-chloro-7-fluoro-4-oxo-chromen-2-yl)phenoxy]ethoxy]cyclobutanecarboxylic acid]
IC50 [1]: 12.8 µM

O=c1cc(-c2ccccc2OCCO[C@H]2C[C@@H](C(=O)O)C2)oc2c(Cl)c(C3CC3)ccc12 [Example C058-A, Cis-3-[2-[2-(8-chloro-7-cyclopropyl-4-oxo-chromen-2-yl)phenoxy]ethoxy]cyclobutanecarboxylic acid]
IC50 [1]: 5.1 µM

COc1cc(O[C@H]2C[C@@H](C(=O)O)N(S(=O)(=O)c3ccccc3)C2)c(-c2cc(=O)c3cccc(Cl)c3o2)cc1OC [Example B081]
IC50 [1]: 3.11 µM

Cc1cc(-c2cc(=O)c3cccc(Br)c3o2)c(OCCC(=O)O)cc1Cl [Example A025, 3-[2-(8-bromo-4-oxo-chromen-2-yl)-5-chloro-4-methyl-phenoxy]propanoic acid]
IC50 [1]: 3.55 µM

COC(=O)[C@H]1C[C@H](OCCOc2cc(S(C)(=O)=O)ccc2-c2cc(=O)c3cccc(Cl)c3o2)C1 [Example C065-B, Trans-methyl 3-[2-[2-(8-chloro-4-oxo-chromen-2-yl)-5-methylsulfonyl-phenoxy]ethoxy]cyclobutanecarboxylate]
IC50 [1]: 12.2 µM

COC(=O)CCOc1cc(Cl)c(C)cc1-c1cc(=O)c2cccc(Cl)c2o1 [Example A038, methyl 3-[5-chloro-2-(8-chloro-4-oxo-chromen-2-yl)-4-methyl-phenoxy]propanoate]
IC50 [1]: 4.79 µM

O=c1cc(-c2ccc(C3CC3)cc2OCCO[C@H]2C[C@H](C(=O)O)C2)oc2c(Cl)cccc12 [Example C069-B, Trans-3-[2-[2-(8-chloro-4-oxo-chromen-2-yl)-5-cyclopropyl-phenoxy]ethoxy]cyclobutanecarboxylic acid]
IC50 [1]: 1.29 µM

O=c1cc(-c2ccc(Br)cc2OCCO[C@H]2C[C@H](C(=O)O)C2)oc2c(Cl)cccc12 [Example C003-B, tram-3-[2-[5-bromo-2-(8-chloro-4-oxo-chromen-2-yl)phenoxy]ethoxy]cyclobutanecarboxylic acid]
IC50 [1]: 1.34 µM

Cc1ccc2c(=O)cc(-c3ccccc3OCCO[C@H]3C[C@H](C(=O)O)C3)oc2c1Cl [Example C029-B, Trans-3-[2-[2-(8-chloro-7-methyl-4-oxo-chromen-2-yl)phenoxy]ethoxy]cyclobutanecarboxylic acid]
IC50 [1]: 1.32 µM

COc1cc(OC2CC(C(=O)O)C2)c(-c2cc(=O)c3cccc(Cl)c3o2)cc1OC (stereo not drawn) [Example B006, 3-[2-(8-chloro-4-oxo-chromen-2-yl)-4,5-dimethoxy-phenoxy]cyclobutanecarboxylic acid]
IC50 [1]: 5.48 µM

O=c1cc(-c2ccc(C3CC3)cc2O[C@H]2C[C@H](C(=O)O)C2)oc2c(Cl)cccc12 [Example B035-B, trans-3-[2-(8-chloro-4-oxo-chromen-2-yl)-5-cyclopropyl-phenoxy]cyclobutanecarboxylic acid]
IC50 [1]: 2.02 µM

O=C(O)C1CC(OCCOc2cnccc2-c2cc(=O)c3cccc(Cl)c3o2)C1 (stereo not drawn) [Example C061, 3-[2-[[4-(8-chloro-4-oxo-chromen-2-yl)-3-pyridyl]oxy]ethoxy]cyclobutanecarboxylic acid]
IC50 [1]: 3.35 µM

COC(=O)C1CC(OCCOc2cc(N3CCOC3=O)ccc2-c2cc(=O)c3cccc(Cl)c3o2)C1 (stereo not drawn) [Example C062a, methyl 3-[2-[2-(8-chloro-4-oxo-chromen-2-yl)-5-(2-oxooxazolidin-3-yl)phenoxy]ethoxy]cyclobutanecarboxylate]
IC50 [1]: 2.45 µM

O=C(O)CCOc1cc(OC(F)(F)F)ccc1-c1cc(=O)c2ccc(Br)c(Cl)c2o1 [Example A023, 3-[2-(7-bromo-8-chloro-4-oxo-chromen-2-yl)-5-(trifluoromethoxy)phenoxy]propanoic acid]
IC50 [1]: 29.6 µM

O=C(O)C1CC(COc2cc(Br)ccc2-c2cc(=O)c3cccc(Cl)c3o2)C1 (stereo in doubt) [Example B025-A, Cis-3-[[5-bromo-2-(8-chloro-4-oxo-chromen-2-yl)phenoxy]methyl]cyclobutanecarboxylic acid]
IC50 (read-out: IC50 (HBeAg level, HepDES19 primary screen assay), HepDES19 cells, 5 days compound incubation, HBeAg ELISA): 4.92 µM

O=C1Cc2cc(OCCO[C@H]3C[C@@H](C(=O)O)C3)c(-c3cc(=O)c4cccc(Cl)c4o3)cc2N1 [Example C091, Cis-3-[2-[6-(8-chloro-4-oxo-chromen-2-yl)-2-oxo-indolin-5-yl]oxyethoxy]cyclobutanecarboxylic acid]
IC50 [1]: 0.418 µM

CS(=O)(=O)C1CCN(C(=O)COc2cc(C(F)(F)F)ccc2-c2cc(=O)c3cccc(Cl)c3o2)C1 (stereo not drawn) [Example A087, 8-chloro-2-[2-[2-(3-methylsulfonylpyrrolidin-1-yl)-2-oxo-ethoxy]-4-(trifluoromethyl)phenyl]chromen-4-one]
IC50 [1]: 4.98 µM

O=C(O)CCOc1cc(C(F)(F)F)ccc1-c1cc(=O)c2c(O)ccc(Cl)c2o1 [Example A045, 3-[2-(8-chloro-5-hydroxy-4-oxo-chromen-2-yl)-5-(trifluoromethyl)phenoxy]propanoic acid]
IC50 [1]: 2.03 µM

O=C(O)[C@@H]1C[C@H](Oc2cc(OC(F)(F)F)ccc2-c2cc(=O)c3cccc(Cl)c3o2)CN1S(=O)(=O)c1ccccc1 [Example B085, (2S,4S)-1-(benzenesulfonyl)-4-[2-(8-chloro-4-oxo-chromen-2-yl)-5-(trifluoromethoxy)phenoxy]pyrrolidine-2-carboxylic acid]
IC50 [1]: 4.57 µM

COc1ccc(OC[C@H]2C[C@@H](C(=O)O)C2)c(-c2cc(=O)c3cccc(Cl)c3o2)c1 [Example B027-A]
IC50 [1]: 2.47 µM

O=c1cc(-c2ccc(Br)cc2OCCO[C@H]2C[C@H](C(=O)O)C2)oc2c(Cl)ccc(C(F)(F)F)c12 [Example C049-B]
IC50 (HepDES19 cells, 5 days compound incubation, HBeAg ELISA, read-out: IC50 (HBeAg level, HepDES19 primary screen assay)): 0.103 µM

O=C1CCCN1c1ccc(-c2cc(=O)c3cccc(Cl)c3o2)c(OCCO[C@H]2C[C@H](C(=O)O)C2)c1 [Example C063-B, Trans-3-[2-[2-(8-chloro-4-oxo-chromen-2-yl)-5-(2-oxopyrrolidin-1-yl)phenoxy]ethoxy]cyclobutanecarboxylic acid]
IC50 [1]: 14.9 µM

Cc1cc(-c2cc(=O)c3c(O)ccc(Cl)c3o2)c(O[C@H]2C[C@@H](C(=O)O)C2)cc1Br [Example B040-A, cis-3-[5-bromo-2-(8-chloro-5-hydroxy-4-oxo-chromen-2-yl)-4-methyl-phenoxy]cyclobutanecarboxylic acid]
IC50 [1]: 0.302 µM

Cc1cc(-c2cc(=O)c3cccc(Cl)c3o2)c(O[C@H]2C[C@H](C(=O)NS(C)(=O)=O)C2)cc1Br [Example B049-B, Trans-3-[5-bromo-2-(8-chloro-4-oxo-chromen-2-yl) 4-methyl-phenoxy]-N-methylsulfonyl-cyclobutanecarboxamide]
IC50 [1]: 8.74 µM

O=C(O)C1CC(OCCOc2cc(Cl)ccc2-c2cc(=O)c3cccc(Cl)c3o2)C1 (stereo not drawn) [Example C004, 3-[2-[5-chloro-2-(8-chloro-4-oxo-chromen-2-yl)phenoxy]ethoxy]cyclobutanecarboxylic acid]
IC50 [1]: 1.32 µM

O=c1cc(-c2ccc(-c3nccs3)cc2OCCO[C@H]2C[C@H](C(=O)O)C2)oc2c(Cl)cccc12 [Example C066-B, Trans-3-[2-[2-(8-chloro-4-oxo-chromen-2-yl)-5-thiazol-2-yl-phenoxy]ethoxy]cyclobutanecarboxylic acid]
IC50 [1]: 1.02 µM

COc1cc(O[C@H]2C[C@@H](C(=O)NS(C)(=O)=O)C2)c(-c2cc(=O)c3cccc(Cl)c3o2)cc1Br [Example B055-A, Cis-3-[4-bromo-2-(8-chloro-4-oxo-chromen-2-yl)-5-methoxy-phenoxy]-N-methylsulfonyl-cyclobutanecarboxamide]
IC50 [1]: 3.59 µM
